Experimental data taken from ChEMBL document CHEMBL1132849, “Amidinohydrazones as guanidine bioisosteres: application to a new class of potent, selective and orally bioavailable, non-amide-based small-molecule thrombin inhibitors” (Bioorg Med Chem Lett, 2000).
Where “and” joins values, the source holds several entries; their conditions need not be identical. Equal entries are not always repeated. Each block holds one molecule with its values, some of them ahead of it.

Columns and labels:
Prothrombin = Prothrombin (Homo sapiens, UniProt P00734); experiment: Inhibitory constant against human alpha thrombin
[1] = pKa was evaluated; format: physicochemical
Canis familiaris [2] = species: Canis familiaris; experiment: Vss was determined; format: ADME, organism-based, Canis lupus familiaris; details: dog, in vivo
[3] = Oral bioavailability in dog; format: ADME, organism-based, Canis lupus familiaris; details: in vivo
[4] = The compound was tested for clearance in dog plasma.; format: ADME, organism-based, Canis lupus familiaris
Canis familiaris [5] = experiment: Time at which maximal (4 fold increase) prolong clotting time was observed after peroral administration of compound (30 mg/kg); format: functional, Canis lupus familiaris
[6] = Percent oral bioavailability of perorally administered compound (30 mg/kg) was tested; format: ADME, organism-based; details: in vivo, read-out: Bioavailabiility
[7] = The compound was tested for time taken to decrease, half of its initial concentration in dog plasma.; format: ADME, organism-based, Canis lupus familiaris
[8] = Partition coefficient ( LogP) of the compound; format: physicochemical; details: octanol/water
[9] = The compound was tested for maximum concentration ( Cmax ) in dog plasma.; format: ADME, organism-based, Canis lupus familiaris
Canis familiaris [10] = experiment: Anticoagulation (1.2 fold increase) after peroral administration of compound (30 mg/kg); format: functional, Canis lupus familiaris
Canis familiaris [11] = experiment: Anticoagulation (1.6 fold increase) after peroral administration of compound (30 mg/kg); format: functional, Canis lupus familiaris
[12] = The compound was tested for its bioavailability in rabbit (by oral dosage).; format: ADME, organism-based, Oryctolagus cuniculus; details: in vivo
[13] = Dose at which bioavailability of intravenously administered compound was tested in rabbit; format: ADME, organism-based, Oryctolagus cuniculus; details: in vivo, iv
Canis familiaris [14] = species: Canis familiaris; experiment: Vss in dog; format: ADME, organism-based, Canis lupus familiaris; details: in vivo
Canis familiaris [15] = experiment: Time at which maximal (1.6 fold increase) prolong clotting time was observed after peroral administration of compound (30 mg/kg) in dog; format: functional, Canis lupus familiaris
Canis familiaris [16] = species: Canis familiaris; experiment: The compound was tested for clotting time thrombin(TCT); format: functional, Canis lupus familiaris
Oryctolagus cuniculus [17] = experiment: Prolongation of thrombin clotting time (to 1.9x over control), 60 min after peroral administration (30 mg/kg); format: functional
[18] = Dose at which bioavailability of perorally administered compound was tested in rabbit; format: ADME, organism-based, Oryctolagus cuniculus; details: in vivo, po
Oryctolagus cuniculus [19] = experiment: Prolongation of thrombin clotting time (to 1.9x over control), after peroral administration (30 mg/kg); format: functional
[20] = Percent oral bioavailability of intravenously administered compound (6 mg/kg) was tested in dog; format: ADME, organism-based, Canis lupus familiaris; details: in vivo, intravenous, read-out: Bioavailabiility

SMILES: COc1ccccc1S(=O)(=O)Oc1cc(C)cc(OC/C=N/N=C(N)N)c1
Ki (Prothrombin): > 1000 nM

SMILES: Cc1cc(OCC2(/C=N/N=C(N)N)CC2)cc(OS(=O)(=O)c2ccccc2C#N)c1
Ki (Prothrombin): 40 nM

SMILES: Cc1cc(OCC/C=N/N=C(N)N)cc(OS(=O)(=O)c2cccc3ccccc23)c1
Ki (Prothrombin): 44 nM

SMILES: Cc1cc(OCC/C=N/N=C(N)N)cc(OS(=O)(=O)c2ccccc2S(C)(=O)=O)c1
Ki (Prothrombin): 20 nM

SMILES: Cc1cc(OCC/C=N/N=C(N)N)cc(OS(=O)(=O)c2ccccc2C#N)c1
pKa [1]: 8.84 | Vss (Canis familiaris [2]): 23 k | bioavailability [3]: 21% | clearance [4]: 79 mL/min/kg | Time (Canis familiaris [5]): 1 h | bioavailability [6]: 21% | half-life [7]: 19 h | logP [8]: 2.11 | Cmax [9]: 900 nM | Time (Canis familiaris [10]): 24 h | Time (Canis familiaris [11]): 8 h

SMILES: COc1cc(CCC/C=N/N=C(N)N)cc(OS(=O)(=O)c2ccccc2Cl)c1
Ki (Prothrombin): 990 nM

SMILES: Cc1cc(OCC/C=N/N=C(N)N)cc(OS(=O)(=O)c2ccccc2Cl)c1
pKa [1]: 8.71 | bioavailability [12]: 60% | bioavailability [3]: 23% | Dose [13]: 6 mg/kg | clearance [4]: 39 mL/min/kg | Vss (Canis familiaris [14]): 3.5 k | Time (Canis familiaris [15]): 2 h | half-life [7]: 21 h | TCT (Canis familiaris [16]): 34 s and 21 s | logP [8]: 2.34 | Cmax [9]: 1800 nM | TCT (Oryctolagus cuniculus [17]): 50 s | Dose [18]: 30 mg/kg | TCT (Oryctolagus cuniculus [19]): 26 s | bioavailability [20]: 23%

SMILES: Cc1cc(OCC/C=N/N=C(N)N)cc(OS(=O)(=O)c2cccc(Cl)c2Cl)c1
Ki (Prothrombin): 9.4 nM

SMILES: Cc1cc(OCC/C=N/N=C(N)N)cc(OS(=O)(=O)c2ccccc2OC(F)(F)F)c1
Ki (Prothrombin): 11 nM

Further lines, results first:

Ki (Prothrombin): 36 nM
SMILES: Cc1cc(OCC/C=N/N=C(N)N)cc(OS(=O)(=O)c2cccnc2)c1

Ki (Prothrombin): 11 nM
SMILES: COc1ccccc1S(=O)(=O)Oc1cc(C)cc(OCC/C=N/N=C(N)N)c1

Ki (Prothrombin): 420 nM
SMILES: Cc1cc(OCC/C=N/N=C(N)N)cc(OCc2ccccc2C(F)(F)F)c1

Ki (Prothrombin): 6 nM
SMILES: Cc1cc(OCC/C=N/N=C(N)N)cc(OS(=O)(=O)c2cccc(C)c2)c1
